Data: US20070060591A1, “Chemokine receptor binding heterocyclic compounds” (priority 1999, published 2007)
Converted amounts (≈) assume the structure as drawn. Read-outs that look alike come from different tables or passages of the source.

Legend:
[1] = tested on: MT-4 cells; experiment: in vitro; assay type: cell-based
Experimental: (§1) The compounds of the invention were tested in a screen by the MTT method (J. Virol. Methods […] (1988)). MT-4 cells (2.5×10^4/well) were challenged with HIV-1 (HTLV-IIIB) or HIV-2 (LAV-2 ROD) at a concentration of 100 CCID50 and incubated in the presence of various concentrations of the test compounds, which were added immediately after challenge with the virus. After 5 days culture at 37° C. in a CO2 incubator, the number of viable cells was assessed by the MTT (tetrazolium) method. […] The potential therapeutic usefulness was assessed by calculating a Selectivity Index (SI) corresponding to the ratio of CC50 to EC50.

[2] = tested on: HIV-2 (LAV-2 ROD); experiment: Anti-HIV-2 screen by the MTT method in MT-4 cells; assay type: cell-based; settings: 100 CCID50, 5 days
Experimental: as §1

[3] = tested on: HIV-1 (HTLV-IIIB); experiment: microbe, parasite or virus in culture; assay type: cell-based; settings: MT-4 cells
Experimental: as §1

[4] = tested on: HIV-1 BaL; experiment: Inhibition of infection of U87.CD4.CCR5 by HIV-1 BaL; assay type: cell-based; settings: U87.CD4.CCR5 cells
[5] = from CCOP(=O)(OCC)N(CCCCCCCNC(=O)CBr)CCNS(=O)(=O)c1ccccc1[N+](=O)[O-]; amine bond; K2CO3; acetonitrile; 0.6 mM; 60.0 °C; 24.0 h
[6] = target: T1, CXCR-4 (Homo sapiens, UniProt P61073); experiment: Inhibition of signal transduction (Ca2+ flux) induced by SDF-1α binding to CXCR-4 on SUP-T1 cells; assay type: cell-based; settings: SDF-1α induced; for inhibition at 1 µg/mL: 1 μg/ml, read-out: % Inhibition of Ca2+ flux (conc)
T1 construct: endogenous in cells; host or cells: SUP-T1 cells
T1 sequence (P61073 whole entry): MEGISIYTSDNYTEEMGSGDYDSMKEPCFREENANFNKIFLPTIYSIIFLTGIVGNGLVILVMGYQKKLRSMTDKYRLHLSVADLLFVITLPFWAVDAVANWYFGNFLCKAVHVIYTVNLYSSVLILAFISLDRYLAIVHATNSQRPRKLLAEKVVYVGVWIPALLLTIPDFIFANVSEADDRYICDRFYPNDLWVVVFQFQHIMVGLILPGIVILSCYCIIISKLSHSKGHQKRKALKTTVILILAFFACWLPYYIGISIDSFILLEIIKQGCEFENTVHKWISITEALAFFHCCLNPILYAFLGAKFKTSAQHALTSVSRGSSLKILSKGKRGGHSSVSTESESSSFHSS

[7] = target: T1, CXCR-4; experiment: Inhibition of mAb 12G5 binding to CXCR-4 in SUP-T1 cells
[8] = crosslinker bond, 14-membered ring, Cs2CO3, DMF
[9] = tested on: DBA/1 IFN-γ RKO mice
Experimental: The control group consisted of ten mice that were injected with collagen as discussed below.
The experiments were performed in 8- to 12-week old mice, but in each experiment, the mutant and wild-type mice were age-matched with a 5 day limit. The male to female ratio was kept between 0.8 and 1.3 in each experimental group.
Native chicken collagen type II (EPC, Owensvillle, Mo.) was dissolved in 0.05 M acetic acid at 2 mg/ml by stirring overnight at 6° C., and emulsified in an equal volume of incomplete (IFA) or complete Freund's adjuvant (CFA) containing 1.5 mg/ml heat killed Mycobacterium butyricum (Difco, Detroit, Mich.). Mice were sensitized with a single 100 μl intradermal injection of the emulsion at the base of the tail. Mice were examined daily for signs of arthritis. The disease severity was recorded following a scoring system for each limb. Score 0: normal; score 1: redness and/or swelling in one joint; score 2: redness and/or swelling in more than one joint; score 3: redness and/or welling in the entire paw; score 4: deformity and/or ankylosis.

[10] = in vitro; assay type: cell-based; settings: human
Experimental: as §1

In the case of `Nc1ccc(CNCc2ccc(CN3CCCNCCNCCCNCC3)cc2)cc1` [AMD3544, N-[1,4,8,11-Tetraazacyclotetradecanyl-1,4-Ihenylenebis(methylene)]-4-amino-benzylamine], the CC50 [1] is reported as 222 µg/mL (≈ 523 µM), the “EC50 HIV-2” value [2] is reported as 3.7 µg/mL (≈ 8.71 µM) and the “EC50 HIV-1 (IIIB)” value ([3]; 100 CCID50, 5 days, MTT) is reported as 0.7 µg/mL (≈ 1.65 µM).
In the case of `c1ccc(N2CCN(Cc3ccc(CN4CCCNCCNCCCNCC4)cc3)CC2)cc1` [AMD3526, 1-[1,4,8,11-Tetraazacyclotetradecanyl-1,4-phenylenebis(methylene)]-4-phenylpiperazine], the “IC50 against infection of U87.CD4.CCR5 by HIV-1 BaL” value (shortened to “IC50 against infection”) [4] is reported as 82 µg/mL.
`CCOP(=O)(OCC)N1CCCCCCCNC(=O)CN(S(=O)(=O)c2ccccc2[N+](=O)[O-])CC1` showed a ring closure, yield of all isomers [5] of 90%.
In the case of `Nc1ccccc1CNCc1ccc(CN2CCCNCCNCCCNCC2)cc1` [AMD3517, N-[1,4,8,11-Tetraazacyclotetradecanyl-1,4-phenylenebis(methylene)]-2-amino-benzylamine], the CC50 [1] is reported as 153 µg/mL (≈ 360 µM), the “EC50 HIV-2” value [2] is reported as 10.6 µg/mL (≈ 25 µM) and the “EC50 HIV-1 (IIIB)” value ([3]; 100 CCID50, 5 days, MTT) is reported as 0.8 µg/mL (≈ 1.88 µM).
For `c1ncc2ncn(Cc3ccc(CN4CCCNCCNCCCNCC4)cc3)c2n1` [AMD3472, N-[1,4,8,11-Tetraazacyclotetradecanyl-1,4-phenylenebis(methylene)]-purine], the “IC50 against infection” value [4] was 45.4 µg/mL.
For `CN(Cc1ccc(CN2CCCNCCNCCCNCC2)cc1)Cc1ccccn1` [AMD3538, N-[1,4,8,11-Tetraazacyclotetradecanyl-1,4-phenylenebis(methylene)]-N-methyl-2-(aminomethyl)pyridine], the CC50 [1] was 209 µg/mL (≈ 492 µM), the “EC50 HIV-2” value [2] was 6.7 µg/mL (≈ 15.8 µM) and the “EC50 HIV-1 (IIIB)” value ([3]; 100 CCID50, 5 days, MTT) was 0.1 µg/mL (≈ 0.235 µM).
With `c1cc(CNCc2ccc(CN3CCCNCCNCCCNCC3)cc2)ccn1` [AMD3500] the CC50 [1] was >250 µg/mL, the “EC50 HIV-2” value [2] was 10.3 µg/mL (≈ 25.1 µM) and the “EC50 HIV-1 (IIIB)” value ([3]; 100 CCID50, 5 days, MTT) was 0.6 µg/mL (≈ 1.46 µM).
Compound `c1ccc(CNCc2ccc(CN3CCNCCc4cccc(c4)CCNCC3)cc2)nc1` [AMD7051, N-[7-(4,7,10-Triazabicyclo[13.3.1]heptadeca-1(17),13,15-trienyl)-1,4-phenylenebis(methylene)]-2-(aminomethyl)pyridine] has an inhibition at 1 µg/mL [6] of 100% and an IC50 [7] of 15.8 nM.
With `c1csc(CNCc2ccc(CN3CCCNCCNCCCNCC3)cc2)c1` [AMD3516, N-[1,4,8,11-Tetraazacyclotetradecanyl-1,4-phenylenebis(methylene)]-2-(amino-methyl)thiophene] the CC50 [1] was 158 µg/mL (≈ 380 µM), the “EC50 HIV-2” value [2] was 9.8 µg/mL (≈ 23.6 µM) and the “EC50 HIV-1 (IIIB)” value ([3]; 100 CCID50, 5 days, MTT) was 0.7 µg/mL (≈ 1.68 µM).
With “bis(3-nitrobenzenesulfonylaminopropyl)ether + Methanesulfonic acid, 5-methanesulfonyloxy-3-(4-{[( [...]” the ring closure, isolated yield ([8]; the molecule shown is the open-chain precursor, 6.3 mM, 80.0 °C) was 51%.
For `c1ccc(CNCc2ccc(CN3CCNCCc4cccc(n4)CCNCC3)cc2)nc1` [AMD7050, N-[7-(4,7,10,17-Tetraazabicyclo[13.3.1]heptadeca-1(17),13,15-trienyl)-1,4-phenylenebis(methylene)]-2-(aminomethyl)pyridine], the inhibition at 1 µg/mL [6] was 100% and the IC50 [7] was 2.25 nM.
For SDF-1α, the “Inhibition of mAb 12G5 binding IC50” value [7] was 0.27 µg/mL.
For `c1cc(CN2CCCNCCNCCCNCC2)ccc1CN1CCCNCCNCCCNCC1` [AMD3100], the IC50 ([4]; Human immunodeficiency virus 1, BAL, read-out: IC50 against infection of U87.CD4.CCR5 by HIV-1 BaL) was > 100 µg/mL, the animals demonstrating arthritis ([9]; 14 days after treatment, i.v. osmotic pump, 5 mg/ml over 14 days, control 7 of ten) was 1 of the 8 and the “body weight loss of treated animals compared with control animals” value ([9]; collagen-injected mice) was “did not demonstrate any significant body weight loss”. The “time until the single treated animal developed arthritic pathology” value ([9]; post-treatment) was > 20 days.
For `Cc1cnc(CNCc2ccc(CN3CCCNCCNCCCNCC3)cc2)cn1` [AMD3498, N-[1,4,8,11-Tetraazacyclotetradecanyl-1,4-phenylenebis(methylene)]-(2-amino-methyl-5-methyl)pyrazine], the CC50 [1] was >250 µg/mL, the “EC50 HIV-2” value [2] was 7.1 µg/mL (≈ 16.7 µM) and the “EC50 HIV-1 (IIIB)” value ([3]; 100 CCID50, 5 days, MTT) was 0.2 µg/mL (≈ 0.47 µM).
In the case of `c1ccc(CCNCc2ccc(CN3CCCNCCNCCCNCC3)cc2)nc1` [AMD3497, N-[1,4,8,11-Tetraazacyclotetradecanyl-1,4-phenylenebis(methylene)]-2-(amino-ethyl)pyridine], the CC50 [1] is reported as >250 µg/mL, the “EC50 HIV-2” value [2] is reported as 3.8 µg/mL (≈ 8.95 µM) and the “EC50 HIV-1 (IIIB)” value ([3]; 100 CCID50, 5 days, MTT) is reported as 1.8 µg/mL (≈ 4.24 µM).
For `c1ccc(CNCc2ccc(CN3CCCNCCNCCCNCC3)cc2)cc1` [AMD3529, N-[1,4,8,11-Tetraazacyclotetradecanyl-1,4-phenylenebis(methylene)]-benzylamine], the CC50 [1] was 130 µg/mL (≈ 317 µM), the “EC50 HIV-2” value [2] was 2.6 µg/mL (≈ 6.35 µM) and the “EC50 HIV-1 (IIIB)” value ([3]; 100 CCID50, 5 days, MTT) was 0.4 µg/mL (≈ 0.977 µM).
For `c1ccc(CNCc2ccc(CN3CCCNCCNCCCNCC3)cc2)nc1` [AMD3465, N-[1,4,8,11-Tetraazacyclotetradecanyl-1,4-phenylenebis(methylene)]-2-(amino-methyl)pyridine], the CC50 at 5 days [10] was > 250 µg/mL, the EC50 ([2]; Human immunodeficiency virus 2, MT4, 120 h) was 0.032 µg/mL (≈ 0.0779 µM) and the IC50 [6] was 2.44 nM. For the same compound, the “SI HIV-1 (Selectivity Index, ratio of CC50 to EC50)” value ([3]; HIV-1 (IIIB)) was 3 × 10^4, the EC50 ([3]; Human immunodeficiency virus 1, IIIB, MT4, 120 h, 100 CCID50, 5 days, MTT) was 0.008 µg/mL (≈ 0.0195 µM) and the IC50 [7] was 7.31 nM.
Work on `CCOP(=O)(OCC)N1CCN(S(=O)(=O)c2ccccc2[N+](=O)[O-])CCCC(F)(F)CCCN(S(=O)(=O)c2ccccc2[N+](=O)[O-])CC1` yielded a ring closure, isolated yield ([8]; from bis-[2-(2-nitrobenzenesulfonylamino)-ethyl]-phosphoramidic acid diethyl ester + 1,7-bis(toluene-4-sulfonic acid)-4,4-difluoro-heptyl-ester, 15.4 mM, 85.0 °C) of 19%.
Compound `c1ccc(CNCc2ccc(CN3CCNCCNCCc4cccc(n4)CC3)cc2)nc1` [AMD7063, N-[4-[4,7,10,17-Tetraazabicyclo[13.3.1]heptadeca-1(17),13,15-trienyl]-1,4-phenylenebis(methylene)]-2-(aminomethyl)pyridine] has an inhibition at 1 µg/mL [6] of 100% and an IC50 [7] of 20.2 nM.
With `Clc1ccc(CN2CCCNCCNCCCNCC2)cn1` [AMD3454, 1-[2-Chloropyrid-5-yl(methylene)]-1,4,8,11-tetraazacyclotetradecane] the “IC50 against infection” value [4] was 32.3 µg/mL.
Compound “bis(3-nitrobenzenesulfonylaminopropyl)ether? + N-(diethoxyphosphoryl)-O,O′-bis(2-methylsulfonyl)diethanolamine” has a ring closure, isolated yield ([8]; the molecule shown is the open-chain precursor, 18.0 mM, 80.0 °C) of 55%.
In the case of `c1ccc(CNCc2ccc(CN3CCNCCNCCc4cccc(c4)CC3)cc2)nc1` [AMD7058, N-[4-[4,7,10-Triazabicyclo[13.3.1]heptadeca-1(17),13,15-trienyl]-1,4-phenylenebis(methylene)]-2-(aminomethyl)pyridine], the inhibition at 1 µg/mL [6] is reported as 44% and the IC50 [7] is reported as > 2250 nM.
`c1ccc(CNCc2ccc(CN3CCNCCCCCCCNCC3)cc2)nc1` [AMD7049, N-[4-(1,4,7-Triazacyclotetra-decanyl)-1,4-phenylenebis(methylene)]-2-(aminomethyl)pyridine] showed an inhibition at 1 µg/mL [6] of 100% and an IC50 [7] of 127 nM.
In the case of `CCOP(=O)(OCC)N1CCN(S(=O)(=O)c2ccccc2[N+](=O)[O-])CCCC(F)CCCN(S(=O)(=O)c2ccccc2[N+](=O)[O-])CC1`, the ring closure, isolated yield ([8]; from bis-[2-(2-nitro-benzenesulfonylamino)-ethyl]-phosphoramidic acid diethyl ester + 1,7-bis(toluene-4-sulfonic acid)-4-fluoro-heptyl-ester, 15.9 mM, 85.0 °C) is reported as 55%.
With `Clc1cc(CN2CCCNCCNCCCNCC2)cc(Cl)n1` [AMD3451, 1-[2,6-Dichloropyrid-4-yl(methylene)]-1,4,8,11-tetraazacyclotetradecane] the “IC50 against infection” value [4] was 8.9 µg/mL.
For `c1nc(CCNCc2ccc(CN3CCCNCCNCCCNCC3)cc2)c[nH]1` [AMD3543, N-[1,4,8,11-Tetraazacyclotetradecanyl-1,4-phenylenebis(methylene)]-4-(amino-ethyl)imidazole], the CC50 [1] was 239 µg/mL (≈ 578 µM), the “EC50 HIV-2” value [2] was 1.0 µg/mL (≈ 2.42 µM) and the “EC50 HIV-1 (IIIB)” value ([3]; 100 CCID50, 5 days, MTT) was 0.2 µg/mL (≈ 0.484 µM).
In the case of `SCCNCc1ccc(CN2CCCNCCNCCCNCC2)cc1` [AMD3530, N-[1,4,8,11-Tetraazacyclotetradecanyl-1,4-phenylenebis(methylene)]-2-(amino-ethyl)mercaptan], the CC50 [1] is reported as 175 µg/mL (≈ 461 µM), the “EC50 HIV-2” value [2] is reported as 2.0 µg/mL (≈ 5.27 µM) and the “EC50 HIV-1 (IIIB)” value ([3]; 100 CCID50, 5 days, MTT) is reported as 0.5 µg/mL (≈ 1.32 µM).
For `c1ccc(CNCc2ccc(CN3CCCCCCCNCCNCC3)cc2)nc1` [AMD7059, N-[1-(1,4,7-Triazacyclotetra-decanyl)-1,4-phenylenebis(methylene)]-2-(aminomethyl)pyridine], the inhibition at 1 µg/mL [6] was 36% and the IC50 [7] was > 2440 nM.
